Where two headings read alike, the source gives them in different places.
T1: IL18 (Homo sapiens, UniProt Q14116)
T1 sequence (Q14116 37-193): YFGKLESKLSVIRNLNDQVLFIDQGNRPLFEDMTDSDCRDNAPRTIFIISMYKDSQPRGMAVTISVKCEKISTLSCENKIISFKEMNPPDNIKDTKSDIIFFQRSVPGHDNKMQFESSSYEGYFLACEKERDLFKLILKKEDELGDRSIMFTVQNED


Tests used:
[1] = tested on: IFN-γ gene expression in NK92 cells; settings: Kalina et al., J. Immunol. 2000; positive control; cited from earlier work
IL18 [2] = assay: HEK-Blue IL18 cell reporter assay (SEAP); type: cell-based; settings: Phase I; HEK-Blue IL18 cells, co-treated with recombinant human IL18 15 pM-100 pM, 18 hours; FIGS. 1A-1D
Procedure: HEK-Blue IL18 Cell Reporter Assay
HEK-Blue IL18 Cells (Invivogen California, USA), are a derivative of HEK293 cells that have been stably transfected with IL18Rα/IL18RAP genes and a SEAP reporter gene that is expressed and secreted in specific response to IL18. Cells were grown in […] tissue culture flasks with DMEM culture medium containing 4.5 g/L glucose, 10% (v/v) heat-inactivated fetal bovine serum, 50 μ/mL penicillin, 50 μg/mL streptomycin, 100 μg/mL Normocin and 2 mM L-glutamine at 37° C. in 5% CO2.
Stock concentration of IL18 was 750 μM stored in Tris-HCl buffer at −80° C. For treatment use, compounds were diluted in sterile PBS to 100 times the intended treatment concentration and administered into wells containing 198 μl media at volumes of 2 μl. Total DMSO contents for all vehicles was less than 0.02% prior to treatment, and less than 0.0002% within wells following treatment.
HEK-Blue IL18 cells were transferred from flasks and seeded at 40-50% confluency on 96-well culture plates 6 hours prior to treatment.
Phase I: Cells were treated with compounds at concentrations of […], 7.5 pM, and 1.5 pM, with three replicate wells for each concentration, and six replicate wells with no compound treatment (NT). All wells were then immediately co-treated with recombinant human IL18 at one concentration between 15 pM-100 pM. Following treatments, cells were incubated at 37° C. in 5% CO2 for 18 hours. Cell confluency typically reached 70-80% (˜80,000-100,000 cells per well) by this point, 24 hours after seeding.
To detect SEAP activity, 20 μL supernatant from each well was transferred and mixed with 180 μl alkaline phosphatase detection medium (QUANTi-Blue, InvivoGen, California, USA), in a separate 96-well plate and incubated for 3 hours at room temperature. Supernatant SEAP activity was measured by reading the optical density (OD) at 640 nm using a spectrophotometer. OD values were standardized to NT mean=1.
Statistical analysis was performed GraphPad Prism (California, USA) software. One-Way analysis of variance (ANOVA) with Dunnett's post-hoc analysis was used to determine significant variation between treatment and control (NT) groups treated only with IL18.

[3] = tested on: IFN-γ gene expression in NK92 cells; assay: IFN-γ gene expression induction in NK-92 cells (qRT-PCR); type: cell-based; settings: 24 hours
Procedure: IFN-γ Gene Expression Induction in NK-92 Cells
IFN-γ gene and protein expression induction is a standard to measure IL-18 activity in NK92 cells (Kalina et al., J. Immunol. 165:1307-1313, 2000).
NK92 cells were treated with 1 μM concentration of compounds 1, 10, or […]. […] 24 hours after treatment, total RNA was harvested and qRT-PCR was conducted using a previously published protocols (Raof et al., BMC Genomics, 17-20, 2016; Monahan et al., FASEB J., 23:557-564, 2009) to measure the gene expression of IFN-γ.

[4] = tested on: human saphenous vein segments; assay: Cytokine expression in human saphenous vein ex vivo (LPS challenge, multiplex ELISA); type: cell-based; settings: LPS 100 ng/ml + compound 10 μM, 18 hours, culture supernatant
Source text: Example 2. Cytokine Expression in Human Saphenous Vein Ex Vivo
In this example, a cytokine storm/inflammation common to many vascular conditions has been modeled by challenging human saphenous vein segments with lipopolysaccharide (LPS). Discarded human saphenous vein samples were collected from patients undergoing peripheral bypass grafting.
Samples were subjected to Human (h) TheRPA (Therapeutic Responses Predictor Assay) which is based on ex-vivo treatment of biopsies (explant cultures). The tissues were transferred to the lab within 30 min of their harvesting and cultured in DMEM+10% FBS+1% antibiotic/antimycotic (DMEM plus glucose, glutamine, sodium pyruvate: Gibco 11995-065; Heat Inactivated FBS: Gibco 16140-089; Antibiotic-Antimycotic: Gibco 15240-096) in the presence of vehicle, LPS (100 ng/ml) or LPS (100 ng/ml)+compound 1/compound 10/compound 15 (10 μM). After 18 hours, culture supernatants were collected and kept at −80° C. Cytokine levels in cell culture supernatant were measured by multiplex ELISA (Milliplex map human cytokine/chemokine magnetic bead kit from Millipore).

IL18 [5] = target: T1, IL18; assay: Microscale Thermophoresis (MST) binding; parameters: Recombinant IL18 was fluorescently labelled using the lysine reactive Pico RED NT647 dye
Procedure: Microscale Thermophoresis
Recombinant IL18 was fluorescently labelled using the lysine reactive Pico RED NT647 dye from NanoTemper Technologies and stored in a PBS buffer containing 0.05% TWEEN (Buffer A). Stock concentration of labelled IL18 was […]. Working concentrations of IL18 were diluted in Buffer A to 10, 40, or 50 nM. Except for the positive control, IL18BP, stock concentration for all compounds, or ligands, was 10-25 mM in 100% DMSO. Ligands were diluted in Buffer A to working concentrations of 50-500 μM. Containing 0.8-2% DMSO. Stock concentration of IL8BP, was 50 μM, stored in 20 mM Tris-HI buffer (pH 8.0) containing 0.4 M Urea and 10% glycerol (Buffer B). Prior to MST experiments being performed 16 preparations of two-fold serial dilutions of ligand in uniform buffer, starting with the working Uigand concentration, were incubated with equal volumes of a fixed concentration of labelled IL8. After 30 minutes incubation at room temperature, 16 Monolith NT. 15 standard capillaries were loaded with 10 μl volumes of each of the ligand/IL18 preparations. Tests described in Results were run at 3700.
Experiments were performed on a Monolith NT.115Pico machine (NanoTemper Technologies GmbH, Germany). Data quality and analysis and graphic rendering were performed using MO.Affinity Analysis v2.3 software from NanoTemper technologies. Evaluation strategy for all analyses was standardized to measure relative change of fluorescence (FNorm %) over a 2.5 second of laser induced temperature shift per capillary. Statistical analysis was performed using NanoTemper's MOControl software. The results of this assay for compounds 1, 10, and 15 are shown in FIGS. 7, 8, 9A, 9B, and […] and Table 3 describes the MST assay conditions.

[6] = tested on: Primary human saphenous vein smooth muscle (SMC); assay: Alamar Blue assay for cell toxicity and proliferation, smooth muscle cells; settings: 10 nM-10 μM, up to 72 hours; FIGS. 3D-3F, 4A, 4B
Procedure: Primary human saphenous vein smooth muscle (SMC) and endothelial cells (EC) were left untreated or treated with inhibitor compounds (10 nM-10 μM) for a period of 3-4 days. Cell proliferation was measured using our previously published Alamar Blue Assay (Monahan et al., FASEB J., 23:557-564, 2009; Yoshida et al., J. Am. Coll. Surg. 213:668-67, 2011).

[7] = tested on: Primary human saphenous vein endothelial cells (EC); assay: Alamar Blue assay for cell toxicity and proliferation, endothelial cells; type: cell-based; settings: 10 nM-10 μM, up to 76 hours; FIGS. 3A-3C
Source text: Alamar Blue Assay for Cell Toxicity and Proliferation

IL18 [8] = target: T1, IL18; settings: background statement; read-out: affinity for hIL18; cited from earlier work
[9] = FIG. 6, compound 1 μM, no treatment 1.33±0.85
[10] = labelled IL18, 37.0° C., n 2, Table 3
[11] = FIG. 5, compound 1 μM, no treatment 1.06±0.38

Molecule | IL-18 activity (SEAP reporter) (IL18 [2]) | IL-6 expression [4] | IL-8 expression [4] | TNF expression [4] | Kd (IL18 [5]; FIGS. 9A-9C) | Kd (IL18 [5]; [10]) | other results
C[S+]([O-])c1ccc(-c2nc(-c3ccc(F)cc3)c(-c3ccncc3)[nH]2)cc1 (stereo not drawn) [Compound 1V] |  |  |  |  |  |  | IFN-γ expression in NK92 cells (literature statement) [1]: known inhibitor of IFN-γ expression in NK92 cells
Nc1cccc(Cc2cccc(N)c2)c1 [Compound 1] | significantly reduce IL-18 activity | significantly inhibited | significantly inhibited | significantly inhibited | 60.6 nM | 60.6 nM | IFN-γ expression [3, 9]: 0.04±0.02
Cc1ccc(Cc2ccc(C)c(N)c2)cc1N [Compound 5] |  | significantly inhibited | significantly inhibited | significantly inhibited |  |  | 
O=C1c2nn[nH]c2C(=O)c2nn[nH]c21 [Compound 10] | significantly reduce IL-18 activity | significantly inhibited | significantly inhibited | significantly inhibited | 2.27 nM | 2.27 nM | toxicity in SMC (Alamar Blue) [6]: no toxicity
CC(C)c1ccc(NC(=N)NC(=N)N)cc1 [Compound 15] | significantly reduce IL-18 activity |  |  |  |  | 5640 nM | toxicity in EC (Alamar Blue) [7]: no toxicity; IFN-γ expression [3, 11]: 0.99±0.38; toxicity in SMC (Alamar Blue) [6]: no toxicity; Kd (IL18 [5]; FIG. 9C): 5600 nM
IL-18: Interleukin-18, pro-inflammatory cytokine used as stimulus of IFN-γ expression |  |  |  |  |  |  | IFN-γ expression [3, 11]: 5.52±3.43; IFN-γ expression [3, 9]: 7.9±7.23
IL18BP: Interleukin-18 Binding Protein, naturally occurring IL18 antagonist, soluble protein with a single Ig domain; positive control (protein, UniProt O95998 31-194, looked up) Interleukin-18-binding protein: TPVSQTTTAATASVRSTKDPCPSQPPVFPAAKQCPALEVTWPEVEVPLNGTLSLSCVACSRFPNFSILYWLGNGSFIEHLPGRLWEGSTSRERGSTGTQLCKALVLEQLTPALHSTNFSCVLVDPEQVVQRHVVLAQLWAGLRATLPPTQEALPSSHSSPQQQG | significantly reduce IL-18 activity |  |  |  | 1.85 nM | 1.85 nM | Kd (IL18 [8]): 0.4 nM
